Results from patent US9023789B2, “Amylin analogs and pharmaceutical compositions thereof” (Novo Nordisk A/S, priority 2012, dated 2015).
Numbered stars: 1 amine (or outer) side, 2 acyl side, 3 side chain; on linkers, the order of the positions; unused ones are H or OH. Bridge positions count the residues as written; N and C are the ends. Side chains are listed from the residue outwards. Peptide text beside a SMILES is read from it. * marks the point of attachment. C20 diacid = O=C(O)CCCCCCCCCCCCCCCCCCC(=O)*; γGlu = O=C(O)[C@H](CCC(=O)[*:2])N[*:1]; AEEA = NCCOCCOCC(=O)O

Experiments:
[1] = molecular target: T1, human amylin receptor (membranes from Amylin 3(a)/CRE-luc cells) (Homo sapiens, UniProt O60896+P30988); assay: ASSAY (V) binding to the human amylin receptor (SPA, 125I-rat amylin); details: for IC50: Table 4, read-out: hAmylin-R bind IC50;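 as to all read-outs here: competition binding of cell membranes (35 ng/µL) mixed with SPA beads in 384-well plates at 40 µL total volume, read by scintillation counting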
T1 construct: expressed in transfected cells
T1 sequence (P30988 25-474): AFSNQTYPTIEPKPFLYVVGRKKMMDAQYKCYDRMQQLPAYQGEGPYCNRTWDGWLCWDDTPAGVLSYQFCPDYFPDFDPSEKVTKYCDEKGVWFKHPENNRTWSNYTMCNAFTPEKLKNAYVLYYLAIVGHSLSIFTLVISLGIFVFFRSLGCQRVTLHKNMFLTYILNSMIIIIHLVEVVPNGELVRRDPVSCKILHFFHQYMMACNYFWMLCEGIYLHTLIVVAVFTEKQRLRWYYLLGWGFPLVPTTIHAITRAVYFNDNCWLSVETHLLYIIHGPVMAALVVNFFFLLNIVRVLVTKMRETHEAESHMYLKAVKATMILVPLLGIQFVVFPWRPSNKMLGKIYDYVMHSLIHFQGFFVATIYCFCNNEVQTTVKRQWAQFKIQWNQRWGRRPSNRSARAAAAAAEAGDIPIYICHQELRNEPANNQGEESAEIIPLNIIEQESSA
T1 sequence (O60896 24-148 partner): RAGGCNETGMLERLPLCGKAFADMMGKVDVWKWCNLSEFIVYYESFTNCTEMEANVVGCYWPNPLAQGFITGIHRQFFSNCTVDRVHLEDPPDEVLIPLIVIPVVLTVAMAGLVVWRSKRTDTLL

[2] = molecular target: T2, rat amylin receptor (rat calcitonin receptor + rat RAMP 3) (Rattus norvegicus, UniProt P32214+Q9JJ73); assay: ASSAY (VI) binding to the rat amylin receptor; details: for IC50: binding to rat amylin receptor, read-out: rAmylin-R bind IC50
T2 construct: expressed in transfected cells; host or cells: BHK tk'ts 13 (transient, FuGENE 6), membranes
T2 sequence (P32214 25-479 isoform P32214-2 limits assumed): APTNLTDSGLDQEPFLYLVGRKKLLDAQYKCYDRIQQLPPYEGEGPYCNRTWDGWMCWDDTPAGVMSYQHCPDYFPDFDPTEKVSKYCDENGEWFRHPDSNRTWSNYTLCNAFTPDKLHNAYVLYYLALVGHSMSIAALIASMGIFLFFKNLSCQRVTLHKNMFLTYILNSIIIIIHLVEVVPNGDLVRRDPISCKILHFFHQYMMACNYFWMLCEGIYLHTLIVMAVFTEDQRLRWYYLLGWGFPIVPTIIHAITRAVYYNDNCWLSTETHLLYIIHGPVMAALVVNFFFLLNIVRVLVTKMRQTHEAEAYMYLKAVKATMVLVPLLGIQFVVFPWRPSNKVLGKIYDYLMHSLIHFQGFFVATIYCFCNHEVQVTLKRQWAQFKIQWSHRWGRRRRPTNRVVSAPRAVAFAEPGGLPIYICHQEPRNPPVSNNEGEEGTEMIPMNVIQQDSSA
T2 sequence (Q9JJ73 23-147 partner): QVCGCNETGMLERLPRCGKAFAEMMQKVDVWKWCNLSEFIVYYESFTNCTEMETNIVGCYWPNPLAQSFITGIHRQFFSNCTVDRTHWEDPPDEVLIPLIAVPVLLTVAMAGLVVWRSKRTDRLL
Method in brief: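 The cell-membrane assay assessed binding at the rat amylin receptor. BHK tk′ts 13 cells were transfected transiently with rat calcitonin receptor, with FuGENE® 6 (Roche) as the transfection reagent, used per the manufacturer's recommendations. Approximately 48 hours after transfection the cells were harvested, and membranes were prepared for measuring binding.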

[3] = molecular target: T3, human amylin 3(a) receptor (human calcitonin receptor + RAMP-3) in BHK570 cells (Homo sapiens, UniProt O60896+P30988); assay: ASSAY (II)a functional assay, human amylin receptor (CRE luciferase); assay type: cell-based; details: for EC50: human amylin receptor functional potency, assay (II), read-out: hAmylin-R funct. EC50
T3 construct: expressed in transfected cells
Method in brief: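 Read-out: CRE-driven luciferase luminescence, single photon counting, after 30 min at room temperature with LucLite. BHK cells expressed calcitonin receptor alone or with RAMP-3 (amylin 3(a)). Cells were stimulated 3 h at 37° C in DMEM, 10% FBS, 10 mM Hepes, pH 7.4.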

[4] = Table 5, selectivity, hCTR bind IC50 / hAmylin-R bind IC50
[5] = Table 5a, selectivity, hCTR bind IC50 / hAmylin-R bind IC50
[6] = Table 5b, selectivity, hCTR bind IC50 / hAmylin-R bind IC50
[7] = Table 5c, selectivity, hCTR bind IC50 / hAmylin-R bind IC50
[8] = Table 7, human binding selectivity, included for comparison
[9] = Table 7a (preferred compounds), human binding selectivity, included for comparison
[10] = ratio of human calcitonin receptor binding IC50 to human amylin receptor binding IC50
[11] = Table 7, rat binding selectivity, rCTR IC50 / rAmylin-R IC50
[12] = Table 7a (preferred compounds), rat binding selectivity, rCTR IC50 / rAmylin-R IC50
[13] = ratio of rCTR bind IC50 to rAmylin-R bind IC50
[14] = hCTR funct. EC50 divided by hAmylin-R funct. EC50
[15] = human functional selectivity: hCTR funct. EC50 / hAmylin-R funct. EC50
[16] = hCTR funct. EC50 over hAmylin-R funct. EC50

| Ratio hCT/hAmylin binding [1, 4] | Ratio hCT/hAmylin binding [1, 5] | Ratio hCT/hAmylin binding [1, 6] | Ratio hCT/hAmylin binding [1, 7] | Ratio hCT/hAmylin binding [1, 8] | Ratio hCT/hAmylin binding [1, 9] | Ratio hCT/hAmylin binding [1, 10] | IC50 ([2]; Table 7) | Ratio rCT/rAmylin binding [2, 11] | Ratio rCT/rAmylin binding [2, 12] | Ratio rCT/rAmylin binding [2, 13] | Ratio hCT/hAmylin funct. [3, 14] | Ratio hCT/hAmylin funct. [3, 15] | IC50 [1] | EC50 [3] | Ratio hCT/hAmylin funct. [3, 16] | SMILES |
| --- | --- | --- | --- | --- | --- | --- | --- | --- | --- | --- | --- | --- | --- | --- | --- | --- |
| 103.5 | 103.5 | 103.5 | 103.5 | 103.5 | 103.5 | 103.5 | 0.084 nM | 130.1 | 130.1 | 130.1 | 9.8 | 9.8 | – | – | – | CC[C@H](C)[C@H](NC(=O)[C@H](C)NC(=O)CNC(=O)[C@H](Cc1ccccc1)NC(=O)[C@H](CC(N)=O)NC(=O)[C@@H]1CCCN1C(=O)[C@H](CO)NC(=O)[C@H](CO)NC(=O)[C@H](Cc1c[nH]cn1)NC(=O)[C@H](CCCNC(=N)N)NC(=O)[C@H](CC(C)C)NC(=O)[C@H](Cc1ccccc1)NC(=O)[C@H](CC(N)=O)NC(=O)[C@H](C)NC(=O)[C@H](CC(C)C)NC(=O)[C@H](CCCNC(=N)N)NC(=O)[C@H](CCC(N)=O)NC(=O)[C@@H](NC(=O)[C@H](C)NC(=O)[C@@H]1CSSC[C@H](NC(=O)[C@@H](N)CCCCNC(=O)COCCOCCNC(=O)CC[C@H](NC(=O)CCCCCCCCCCCCCCCCCCC(=O)O)C(=O)O)C(=O)N[C@@H](CC(N)=O)C(=O)N[C@@H]([C@@H](C)O)C(=O)N[C@@H](C)C(=O)N[C@@H]([C@@H](C)O)C(=O)N1)[C@@H](C)O)C(=O)N1CCC[C@H]1C(=O)N1CCC[C@H]1C(=O)N[C@@H](CO)C(=O)N[C@H](C(=O)N1CCC[C@H]1C(=O)N[C@H](C(=O)NCC(=O)N[C@@H](CO)C(=O)N[C@@H](CC(N)=O)C(=O)N[C@H](C(=O)N[C@@H](Cc1ccc(O)cc1)C(N)=O)[C@@H](C)O)C(C)C)[C@@H](C)O [Example 53] (H-K([AEEA-γGlu-C20 diacid])CNTATCATQRLANFLRHSSPNFGAIPPSTPVGSNTY-NH2; disulfide 2-7; N-terminus assumed) |
| 4.3 | – | – | – | 4.3 | 4.3 | – | 0.659 nM | 28.5 | 28.5 | – | – | 5.0 | 1.19 nM | 0.389 nM | – | CC[C@H](C)[C@H](NC(=O)[C@H](C)NC(=O)CNC(=O)[C@H](Cc1ccccc1)NC(=O)[C@H](CC(N)=O)NC(=O)[C@H](CCCCNC(=O)CC[C@H](NC(=O)CC[C@H](NC(=O)CCCCCCCCCCCCCCCCCCC(=O)O)C(=O)O)C(=O)O)NC(=O)[C@H](CO)NC(=O)[C@H](CO)NC(=O)[C@H](Cc1c[nH]cn1)NC(=O)[C@H](CCCNC(=N)N)NC(=O)[C@H](CC(C)C)NC(=O)[C@H](Cc1ccccc1)NC(=O)[C@H](CC(=O)O)NC(=O)[C@H](C)NC(=O)[C@H](CC(C)C)NC(=O)[C@H](CCCNC(=N)N)NC(=O)[C@H](CCC(N)=O)NC(=O)[C@@H](NC(=O)[C@H](C)NC(=O)[C@@H]1CSSC[C@H](NC(=O)[C@@H](N)CCCCN)C(=O)N[C@@H](CC(N)=O)C(=O)N[C@@H]([C@@H](C)O)C(=O)N[C@@H](C)C(=O)N[C@@H]([C@@H](C)O)C(=O)N1)[C@@H](C)O)C(=O)N1CCC[C@H]1C(=O)N[C@@H](CO)C(=O)N[C@@H](CO)C(=O)N[C@H](C(=O)N[C@@H](CC(N)=O)C(=O)N[C@H](C(=O)NCC(=O)N[C@@H](CO)C(=O)N[C@@H](CC(=O)O)C(=O)N[C@H](C(=O)N[C@@H](Cc1ccc(O)cc1)C(N)=O)[C@@H](C)O)C(C)C)[C@@H](C)O [Example 59] (H-KCNTATCATQRLADFLRHSSK([γGlu-γGlu-C20 diacid])NFGAIPSSTNVGSDTY-NH2; disulfide 2-7; N-terminus assumed) |
| 48.9 | 48.9 | 48.9 | 48.9 | 48.9 | 48.9 | 48.9 | 0.33 nM | 141.8 | 141.8 | 141.8 | 10.2 | 10.2 | – | – | 10.2 | CC[C@H](C)[C@H](NC(=O)[C@H](C)NC(=O)CNC(=O)[C@H](Cc1ccccc1)NC(=O)[C@H](CC(N)=O)NC(=O)[C@@H]1CCCN1C(=O)[C@H](CO)NC(=O)[C@H](CO)NC(=O)[C@H](Cc1c[nH]cn1)NC(=O)[C@H](CCCNC(=N)N)NC(=O)[C@H](CC(C)C)NC(=O)[C@H](Cc1ccccc1)NC(=O)[C@H](CC(N)=O)NC(=O)[C@H](C)NC(=O)[C@H](CC(C)C)NC(=O)[C@H](CCCNC(=N)N)NC(=O)[C@H](CCC(N)=O)NC(=O)[C@@H](NC(=O)[C@H](C)NC(=O)[C@@H]1CSSC[C@H](NC(=O)[C@H](CCCNC(=N)N)NC(=O)CNC(=O)CC[C@H](NC(=O)CCCCCCCCCCCCCCCCCCC(=O)O)C(=O)O)C(=O)N[C@@H](CC(N)=O)C(=O)N[C@@H]([C@@H](C)O)C(=O)N[C@@H](C)C(=O)N[C@@H]([C@@H](C)O)C(=O)N1)[C@@H](C)O)C(=O)N1CCC[C@H]1C(=O)N[C@@H](CO)C(=O)N[C@@H](CO)C(=O)N[C@H](C(=O)N[C@@H](CC(N)=O)C(=O)N[C@H](C(=O)NCC(=O)N[C@@H](CO)C(=O)N[C@@H](CC(N)=O)C(=O)N[C@H](C(=O)N[C@@H](Cc1ccc(O)cc1)C(N)=O)[C@@H](C)O)C(C)C)[C@@H](C)O [Example 46] ({C20 diacid-γGlu}-GRCNTATCATQRLANFLRHSSPNFGAIPSSTNVGSNTY-NH2; disulfide 3-8 (inferred)) |
| 45.5 | 45.5 | 45.5 | 45.5 | 45.5 | 45.5 | 45.5 | 0.581 nM | 35.8 | 35.8 | 35.8 | 20.1 | 20.1 | 0.396 nM | 0.027 nM | 20.1 | CC[C@H](C)[C@H](NC(=O)[C@H](C)NC(=O)CNC(=O)[C@H](Cc1ccccc1)NC(=O)[C@H](CC(N)=O)NC(=O)[C@@H]1CCCN1C(=O)[C@H](CO)NC(=O)[C@H](CO)NC(=O)[C@H](Cc1c[nH]cn1)NC(=O)[C@H](CCCNC(=N)N)NC(=O)[C@H](CC(C)C)NC(=O)[C@H](Cc1ccccc1)NC(=O)[C@H](Cc1c[nH]cn1)NC(=O)[C@H](C)NC(=O)[C@H](CC(C)C)NC(=O)[C@H](CCCNC(=N)N)NC(=O)[C@H](CCC(N)=O)NC(=O)[C@@H](NC(=O)[C@H](C)NC(=O)[C@@H]1CSSC[C@H](NC(=O)[C@@H](N)CCCCNC(=O)CC[C@H](NC(=O)CCCCCCCCCCCCCCCCCCC(=O)O)C(=O)O)C(=O)N[C@@H](CC(N)=O)C(=O)N[C@@H]([C@@H](C)O)C(=O)N[C@@H](C)C(=O)N[C@@H]([C@@H](C)O)C(=O)N1)[C@@H](C)O)C(=O)N1CCC[C@H]1C(=O)N[C@@H](CO)C(=O)N[C@@H](CO)C(=O)N[C@H](C(=O)N[C@@H](CC(N)=O)C(=O)N[C@H](C(=O)NCC(=O)N[C@@H](CO)C(=O)N[C@@H](Cc1c[nH]cn1)C(=O)N[C@H](C(=O)N[C@@H](Cc1ccc(O)cc1)C(N)=O)[C@@H](C)O)C(C)C)[C@@H](C)O [Example 66] (H-K([γGlu-C20 diacid])CNTATCATQRLAHFLRHSSPNFGAIPSSTNVGSHTY-NH2; disulfide 2-7; N-terminus assumed) |
